Reference: patent US8394630B2, “Producing a mammalian pluripotent cell population from mammalian blastomere-like stem cells (BLSCs)” (StemBios Technologies, Inc., priority 2009, dated 2013)

Tested on: BLSCs
Assay: Culturing BLSCs in medium containing RA or TGF-β to produce SBR and SBT cells
Type: cell-based, human
Conditions: StemBios-003 medium, 0.1 to 20 μM RA or 1 to 40 nM TGF-β, over 2-6 weeks
Experimental: The method for activation, purification, and expansion of BLSCs has been described in WO/2007/100845. In this example, BLSCs were purified from blood of a human subject using two methods. The isolated cells were analyzed by flow cytometry.
The purified BLSCs were cultured in StemBios-001. To produce SBR and SBT cells, BLSCs were cultured in a StemBios-002 medium for 2 weeks. Then, the BLSCs were cultured in a StemBios-003 medium containing 0.1 to 20 μM of RA or 1 to 40 nM of TGF-β for over 2˜6 weeks. […] These cells were named SBR and SBT cells respectively.

## TGF-β
  change of morphology and sizes of cultured BLSCs: gradually changed their morphology and sizes
